Reference: US11197863B2, “Inhibitors of polo-like kinase 4 (PLK4) for treating pediatric embryonal tumors” (ANN AND ROBERT H. LURIE CHILDREN'S HOSPITAL OF CHICAGO, priority 2017, dated 2021)
Where two headings read alike, the source gives them in different places.

What was measured:
[1] = test system: DAOY cells; assay: Combination therapy viability assay; settings: Homo sapiens, 72 h
[2] = test system: BT-16 cells; assay: Combination therapy viability assay; type: cell-based; settings: Homo sapiens, BT-16, 72 h, read-out: IC50 of compound 2
[3] = test system: MON cells; assay: Combination therapy viability assay; type: cell-based; settings: Homo sapiens, 72 h, read-out: IC50 of compound 2
[4] = test system: rhabdoid mouse xenograft models; settings: in vivo; cited from earlier work
[5] = children, single agent; cited from earlier work
[6] = test system: rhabdoid tumor cell lines; settings: inhibition of ERBB2; cited from earlier work
[7] = read-out: IC50 of compound 2, DAOY, combined with CFI-400945 (5 nM)
[8] = read-out: IC50 of compound 2, DAOY, combined with CFI-400945 (10 nM)
[9] = combined with CFI-400945 (5 nM)
[10] = combined with CFI-400945 (10 nM)

SMILES | IC50 [1, 7] [nM] | IC50 [1, 8] [nM] | IC50 [2, 9] [nM] | IC50 [2, 10] [nM] | IC50 [3, 9] [nM] | IC50 [3, 10] [nM] | response rates [4] | clinical activity [5] | cell migration and apoptosis [6]
COc1cccc2c1C(=O)c1c(O)c3c(c(O)c1C2=O)C[C@@](O)(C(=O)CO)C[C@@H]3O[C@H]1C[C@H](N)[C@H](O)[C@H](C)O1 [Doxorubicin, doxorubicin] | 168 | 199 | 566 | 576 | 74 | 57 |  |  | 
COc1cc([C@@H]2c3cc4c(cc3[C@@H](O[C@@H]3O[C@@H]5CO[C@@H](C)O[C@H]5[C@H](O)[C@H]3O)[C@H]3COC(=O)[C@H]23)OCO4)cc(OC)c1O [Etoposide, etoposide] | 494 | 800 | 593 | 6 | 292 | 266 |  |  | 
COc1cc(Nc2ncc3c(n2)-c2ccc(Cl)cc2C(c2c(F)cccc2OC)=NC3)ccc1C(=O)O [alisertib] |  |  |  |  |  |  | high response rates | active as a single agent | 
CS(=O)(=O)CCNCc1ccc(-c2ccc3ncnc(Nc4ccc(OCc5cccc(F)c5)c(Cl)c4)c3c2)o1 [lapatinib] |  |  |  |  |  |  |  |  | significant impairment of cell migration and initiation of apoptosis
